Results taken from patent US8415469B2, “Compounds and methods for kinase modulation, and indications therefor” (Plexxikon Inc., priority 2005, dated 2013).
Each block holds one compound with its values, some of them ahead of it.

Tests used:
Type in all cases: biochemical
TEC = molecular target: T1, TEC (Homo sapiens, UniProt P42680); test: AlphaScreen kinase assay, TEC; conditions: read-out: IC50, activity toward kinase TEC
T1 sequence (P42680 1-631): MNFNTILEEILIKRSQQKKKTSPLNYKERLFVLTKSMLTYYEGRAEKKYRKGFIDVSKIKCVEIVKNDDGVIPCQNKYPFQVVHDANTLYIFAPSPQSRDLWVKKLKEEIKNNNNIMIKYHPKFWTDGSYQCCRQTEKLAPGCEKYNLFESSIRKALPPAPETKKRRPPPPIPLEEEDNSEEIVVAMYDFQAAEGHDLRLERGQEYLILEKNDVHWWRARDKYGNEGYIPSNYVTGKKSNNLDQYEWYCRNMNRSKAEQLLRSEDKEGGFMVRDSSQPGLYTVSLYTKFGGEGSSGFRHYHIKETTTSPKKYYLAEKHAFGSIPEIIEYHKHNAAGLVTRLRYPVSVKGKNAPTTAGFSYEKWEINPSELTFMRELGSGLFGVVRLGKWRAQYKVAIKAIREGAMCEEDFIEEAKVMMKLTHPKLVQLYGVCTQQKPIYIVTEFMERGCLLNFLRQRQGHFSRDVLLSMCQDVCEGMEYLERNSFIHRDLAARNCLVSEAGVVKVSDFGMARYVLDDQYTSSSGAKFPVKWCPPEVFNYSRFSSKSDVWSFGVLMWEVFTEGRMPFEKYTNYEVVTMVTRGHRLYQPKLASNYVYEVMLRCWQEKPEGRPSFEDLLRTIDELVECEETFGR
How it was run: (§1)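 AlphaScreen read-out: acceptor-bead emission falls when kinase is inhibited. Biotin-peptide substrate captured on streptavidin donor beads, phospho-specific antibody on acceptor beads. 8 concentrations, 1:3 dilution series, from 20 mM DMSO stocks.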

Syk = Syk (Homo sapiens, UniProt P43405); test: AlphaScreen kinase assay, Syk; conditions: read-out: IC50, activity toward kinase Syk
How it was run: as §1

Hck = Hck (Homo sapiens, UniProt P08631); test: AlphaScreen kinase assay, Hck; conditions: read-out: IC50, activity toward kinase Hck
Text: (§2) AlphaScreen assay was used to screen additional kinases. The assay is similarly dependent on the phosphorylation of a peptide substrate. In this assay, an antibody that recognizes phosphorylated substrate is bound to an acceptor bead. The peptide substrate is attached to biotin, which binds to a donor head that contains streptavidin. Thus phosphorylated substrate is bound by antibody and streptavidin, bringing the donor and acceptor heads into close proximity when kinase is not inhibited. The donor produces singlet oxygen which results in emission from the acceptor when they are in close proximity. Conversely, when kinase is inhibited, the donor and acceptor beads are not associated and the emission from the acceptor is reduced.
(§3) AlphaScreen assays were done using compounds dissolved in DMSO to a concentration of 20 mM. The compounds were diluted accordingly to the desired final concentrations in each sample well, using 1:3 serial dilution for a total of 8 concentration points.

Zap70 = molecular target: T2, Zap70 (Homo sapiens, UniProt P43403); test: AlphaScreen kinase assay, Zap70; conditions: read-out: IC50, activity toward kinase Zap70
T2 construct: P1868.pFastBac1 ZAP70 D327-G606 HIS, WT; His7 (HHHHHHH) (C); made in house
T2 sequence (P43403 with tags, fused parts or gaps): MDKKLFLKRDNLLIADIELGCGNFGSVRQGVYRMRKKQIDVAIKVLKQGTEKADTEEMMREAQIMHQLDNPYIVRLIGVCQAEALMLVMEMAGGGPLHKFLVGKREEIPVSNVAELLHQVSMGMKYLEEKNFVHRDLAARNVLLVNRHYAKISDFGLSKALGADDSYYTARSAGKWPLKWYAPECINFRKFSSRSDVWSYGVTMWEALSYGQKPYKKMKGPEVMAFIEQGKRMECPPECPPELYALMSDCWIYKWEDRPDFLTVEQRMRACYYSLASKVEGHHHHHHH
How it was run: as §1

ALK = ALK (Homo sapiens, UniProt Q9UM73); test: AlphaScreen kinase assay, ALK; conditions: read-out: IC50, activity toward kinase ALK
Text: as §2, §3

Tie2 = Tie2 (Homo sapiens, UniProt Q02763); test: AlphaScreen kinase assay, Tie2; conditions: read-out: IC50, activity toward kinase Tie2
Text: as §2, §3

Plk1 = Plk1 (Homo sapiens, UniProt P53350); test: AlphaScreen kinase assay, Plk1; conditions: read-out: IC50, activity toward kinase Plk1
How it was run: as §1

MAPKAPK2 = molecular target: T3, MAPKAPK2 (Homo sapiens, UniProt P49137); test: Z'-Lyte FRET kinase assay (Invitrogen), MAPKAPK2; conditions: read-out: IC50, activity toward kinase MAPKAPK2
T3 construct: purchased Invitrogen (assay run by Invitrogen)
How it was run: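 Serially diluted compound (1% DMSO final) is mixed with kinase plus 2 μM peptide substrate in pH 7.5 HEPES buffer, then ATP is added to 10 μM. After 1 h at room temperature, site-specific protease is added for another hour, reactions are stopped and fluorescence ratio measured.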

Sequence of Tie2 (Q02763 23-1124): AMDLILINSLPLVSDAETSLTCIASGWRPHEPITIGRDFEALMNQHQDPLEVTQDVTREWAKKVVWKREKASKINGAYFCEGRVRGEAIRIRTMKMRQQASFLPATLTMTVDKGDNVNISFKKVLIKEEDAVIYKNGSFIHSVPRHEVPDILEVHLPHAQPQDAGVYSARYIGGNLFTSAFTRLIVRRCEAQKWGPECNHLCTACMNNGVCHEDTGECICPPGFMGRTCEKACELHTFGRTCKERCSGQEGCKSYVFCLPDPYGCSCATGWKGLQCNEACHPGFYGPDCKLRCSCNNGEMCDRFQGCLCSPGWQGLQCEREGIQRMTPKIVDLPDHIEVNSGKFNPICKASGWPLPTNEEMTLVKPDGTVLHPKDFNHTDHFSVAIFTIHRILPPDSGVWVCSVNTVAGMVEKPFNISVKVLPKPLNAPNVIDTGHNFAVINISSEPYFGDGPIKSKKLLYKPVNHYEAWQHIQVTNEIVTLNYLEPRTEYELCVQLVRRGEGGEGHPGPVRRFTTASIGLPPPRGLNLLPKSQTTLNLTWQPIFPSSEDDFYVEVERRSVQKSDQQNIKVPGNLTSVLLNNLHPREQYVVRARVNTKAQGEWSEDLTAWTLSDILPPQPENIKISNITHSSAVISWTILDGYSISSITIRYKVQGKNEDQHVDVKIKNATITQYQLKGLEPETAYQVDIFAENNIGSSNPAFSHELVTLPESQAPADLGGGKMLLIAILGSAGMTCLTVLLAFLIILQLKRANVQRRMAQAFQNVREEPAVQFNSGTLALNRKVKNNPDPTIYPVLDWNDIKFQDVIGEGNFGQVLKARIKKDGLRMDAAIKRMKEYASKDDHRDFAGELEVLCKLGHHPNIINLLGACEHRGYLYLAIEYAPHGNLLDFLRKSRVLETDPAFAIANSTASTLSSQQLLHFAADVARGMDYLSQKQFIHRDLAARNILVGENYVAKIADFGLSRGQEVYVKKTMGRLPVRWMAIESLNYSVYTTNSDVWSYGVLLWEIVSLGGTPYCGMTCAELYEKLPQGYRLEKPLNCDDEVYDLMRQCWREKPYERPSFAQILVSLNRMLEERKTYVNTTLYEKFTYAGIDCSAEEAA
Sequence of ALK (Q9UM73 19-1620): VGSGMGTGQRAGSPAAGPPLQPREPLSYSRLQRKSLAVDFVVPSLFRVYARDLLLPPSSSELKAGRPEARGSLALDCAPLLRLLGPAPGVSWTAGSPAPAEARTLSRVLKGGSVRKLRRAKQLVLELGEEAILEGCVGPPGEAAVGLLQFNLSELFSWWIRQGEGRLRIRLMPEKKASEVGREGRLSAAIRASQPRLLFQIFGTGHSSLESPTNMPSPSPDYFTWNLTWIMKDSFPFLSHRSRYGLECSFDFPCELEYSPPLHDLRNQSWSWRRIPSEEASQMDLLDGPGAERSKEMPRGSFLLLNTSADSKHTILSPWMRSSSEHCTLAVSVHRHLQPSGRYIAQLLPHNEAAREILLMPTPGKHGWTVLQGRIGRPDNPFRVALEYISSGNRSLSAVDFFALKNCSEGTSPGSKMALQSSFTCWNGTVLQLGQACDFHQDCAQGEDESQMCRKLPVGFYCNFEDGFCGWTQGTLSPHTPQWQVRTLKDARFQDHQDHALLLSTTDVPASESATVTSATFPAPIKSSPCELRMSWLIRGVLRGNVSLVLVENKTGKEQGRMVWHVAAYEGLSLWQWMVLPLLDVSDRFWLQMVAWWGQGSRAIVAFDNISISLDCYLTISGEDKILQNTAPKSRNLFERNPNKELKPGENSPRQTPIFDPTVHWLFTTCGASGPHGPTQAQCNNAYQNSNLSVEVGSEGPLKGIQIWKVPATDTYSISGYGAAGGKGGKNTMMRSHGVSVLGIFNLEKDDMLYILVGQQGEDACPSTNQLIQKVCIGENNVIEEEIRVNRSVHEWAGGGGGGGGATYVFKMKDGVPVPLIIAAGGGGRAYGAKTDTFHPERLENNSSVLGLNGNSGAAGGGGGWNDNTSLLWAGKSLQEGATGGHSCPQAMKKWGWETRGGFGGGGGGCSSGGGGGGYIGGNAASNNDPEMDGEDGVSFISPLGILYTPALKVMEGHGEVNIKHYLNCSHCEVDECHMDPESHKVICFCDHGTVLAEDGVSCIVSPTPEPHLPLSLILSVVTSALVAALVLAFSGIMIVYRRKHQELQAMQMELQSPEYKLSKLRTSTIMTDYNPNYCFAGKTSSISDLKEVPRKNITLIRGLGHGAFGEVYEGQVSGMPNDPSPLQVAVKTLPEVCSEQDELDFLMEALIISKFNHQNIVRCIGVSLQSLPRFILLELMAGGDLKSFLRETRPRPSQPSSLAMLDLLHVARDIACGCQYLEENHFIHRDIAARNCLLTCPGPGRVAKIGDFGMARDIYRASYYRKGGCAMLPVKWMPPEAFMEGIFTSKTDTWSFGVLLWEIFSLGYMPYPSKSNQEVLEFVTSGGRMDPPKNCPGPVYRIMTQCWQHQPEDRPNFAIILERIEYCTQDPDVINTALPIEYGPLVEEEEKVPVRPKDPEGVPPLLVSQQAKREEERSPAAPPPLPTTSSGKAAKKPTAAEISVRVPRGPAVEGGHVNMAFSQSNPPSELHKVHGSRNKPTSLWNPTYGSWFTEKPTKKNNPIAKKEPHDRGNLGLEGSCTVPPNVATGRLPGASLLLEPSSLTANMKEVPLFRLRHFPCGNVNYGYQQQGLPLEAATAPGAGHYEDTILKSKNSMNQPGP
Sequence of Plk1 (P53350 whole entry): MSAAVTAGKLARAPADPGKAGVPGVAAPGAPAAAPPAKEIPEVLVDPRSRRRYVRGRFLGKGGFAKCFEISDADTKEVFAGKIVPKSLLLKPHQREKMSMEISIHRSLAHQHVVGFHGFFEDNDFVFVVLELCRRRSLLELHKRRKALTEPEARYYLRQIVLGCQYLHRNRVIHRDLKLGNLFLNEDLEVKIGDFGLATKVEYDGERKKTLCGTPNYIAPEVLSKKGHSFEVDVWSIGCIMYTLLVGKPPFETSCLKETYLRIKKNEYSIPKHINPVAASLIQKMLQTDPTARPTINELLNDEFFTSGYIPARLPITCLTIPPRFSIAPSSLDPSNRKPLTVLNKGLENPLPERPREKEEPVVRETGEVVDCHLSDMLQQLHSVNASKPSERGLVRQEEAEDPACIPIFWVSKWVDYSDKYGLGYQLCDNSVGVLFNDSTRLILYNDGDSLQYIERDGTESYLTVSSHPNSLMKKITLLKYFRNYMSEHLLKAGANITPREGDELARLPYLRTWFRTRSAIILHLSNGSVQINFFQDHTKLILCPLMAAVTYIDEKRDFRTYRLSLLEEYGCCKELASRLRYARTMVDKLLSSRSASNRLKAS
T3 sequence (P49137 whole entry): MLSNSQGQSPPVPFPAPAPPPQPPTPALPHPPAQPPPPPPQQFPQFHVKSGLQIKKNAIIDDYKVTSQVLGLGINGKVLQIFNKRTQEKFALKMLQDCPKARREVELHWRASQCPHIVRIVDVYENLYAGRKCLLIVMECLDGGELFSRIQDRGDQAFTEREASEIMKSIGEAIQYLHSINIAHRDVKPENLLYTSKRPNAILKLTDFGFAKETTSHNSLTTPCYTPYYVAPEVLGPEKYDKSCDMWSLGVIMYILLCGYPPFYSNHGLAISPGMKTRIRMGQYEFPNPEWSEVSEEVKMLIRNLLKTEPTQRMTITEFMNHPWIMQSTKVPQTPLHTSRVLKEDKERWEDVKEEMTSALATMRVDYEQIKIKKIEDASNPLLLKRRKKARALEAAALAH
Sequence of Hck (P08631 whole entry): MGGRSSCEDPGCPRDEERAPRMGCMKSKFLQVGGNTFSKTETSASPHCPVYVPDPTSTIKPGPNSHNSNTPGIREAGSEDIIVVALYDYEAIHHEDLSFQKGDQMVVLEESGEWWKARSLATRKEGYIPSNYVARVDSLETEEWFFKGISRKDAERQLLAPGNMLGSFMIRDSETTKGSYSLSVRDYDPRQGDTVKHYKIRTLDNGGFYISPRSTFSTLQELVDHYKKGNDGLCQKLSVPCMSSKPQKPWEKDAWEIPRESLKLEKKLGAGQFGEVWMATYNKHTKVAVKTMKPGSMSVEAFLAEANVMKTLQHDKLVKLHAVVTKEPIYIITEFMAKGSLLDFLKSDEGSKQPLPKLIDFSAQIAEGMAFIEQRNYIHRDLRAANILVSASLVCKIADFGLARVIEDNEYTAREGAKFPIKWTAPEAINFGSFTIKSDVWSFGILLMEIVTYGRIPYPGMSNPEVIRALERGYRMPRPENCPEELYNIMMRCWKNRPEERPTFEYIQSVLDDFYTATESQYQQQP

SMILES: Oc1cccc(Cc2c[nH]c3ncc(-c4ccsc4)cc23)c1 [Compound P-0056]
IC50 (Syk): ≤ 10 µM

SMILES: CC(=O)Nc1cccc(-c2cnc3[nH]cc(C(=O)c4cc(O)ccc4F)c3c2)c1 [Compound P-0001]
IC50 (Zap70): ≤ 10 µM

SMILES: Cc1ccc(F)cc1C(=O)c1c[nH]c2ncc(-c3cccc(N)c3)cc12 [Compound P-0040]
IC50 (Zap70): ≤ 10 µM

SMILES: CS(=O)(=O)Nc1cccc(-c2cnc3[nH]cc(C(=O)c4cccc(O)c4F)c3c2)c1 [Compound P-0038, N-{3-[3-(2-Fluoro-3-hydroxy-benzoyl)-1H-pyrrolo[2,3-b]pyridin-5-yl]-phenyl}-methanesulfonamide]
IC50 (Zap70): ≤ 10 µM

SMILES: Nc1cccc(-c2cnc3[nH]cc(C(=O)c4cc(O)ccc4F)c3c2)c1 [Compound P-0002]
IC50 (Syk): ≤ 10 µM

SMILES: Cc1ccccc1C(=O)c1c[nH]c2nccc(-c3ccc(C(N)=O)cc3)c12 [Compound P-0017]
IC50 (TEC): ≤ 10 µM

SMILES: COc1ccc(C(=O)c2c[nH]c3ncc(-c4cccc(/C=C/C(=O)O)c4)cc23)c(Cl)c1 [Compound P-0015]
IC50 (Zap70): ≤ 10 µM

SMILES: Cn1cc(C(F)(F)F)c(-c2ccc(S(=O)(=O)NCc3c[nH]c4ncccc34)s2)n1 [Compound P-0041]
IC50 (MAPKAPK2): ≤ 10 µM | IC50 (Zap70): ≤ 10 µM

SMILES: Nc1cccc(-c2ccnc3[nH]cc(C(=O)c4cc(F)ccc4F)c23)c1 [Compound P-0046]
IC50 (Plk1): ≤ 10 µM

SMILES: NC(=O)c1cccc(-c2cnc3[nH]cc(C(=O)c4cccc(O)c4F)c3c2)c1 [Compound P-0034, 3-[3-(2-Fluoro-3-hydroxy-benzoyl)-1H-pyrrolo[2,3-b]pyridin-5-yl]benzamide]
IC50 (Zap70): ≤ 10 µM

SMILES: Nc1cccc(-c2cnc3[nH]cc(C(=O)c4cccc(O)c4F)c3c2)c1 [Compound P-0004, [5-(3-amino-phenyl)-1H-pyrrolo[2,3-b]pyridin-3-yl]-(2-fluoro-3-hydroxy-phenyl)methanone]
IC50 (Zap70): ≤ 10 µM

SMILES: CCCS(=O)(=O)Nc1ccc(F)c(C(=O)c2c[nH]c3ncccc23)c1F [Compound P-0007, Propane-1-sulfonic acid [2,4-difluoro-3-(1H-pyrrolo[2,3-b]pyridine-3-carbonyl)-phenyl]-amide]
IC50 (MAPKAPK2): ≤ 10 µM | IC50 (Hck): ≤ 10 µM

SMILES: O=C(O)/C=C/c1cccc(-c2cnc3[nH]cc(C(=O)c4cc(O)ccc4F)c3c2)c1 [Compound P-0010]
IC50 (Syk): ≤ 10 µM

SMILES: Cc1ccccc1C(=O)c1c[nH]c2nccc(-c3cccc(N)c3)c12 [Compound P-0044]
IC50 (Plk1): ≤ 10 µM | IC50 (TEC): ≤ 10 µM

SMILES: O=C(c1cc(O)ccc1F)c1c[nH]c2ncc(-c3cccs3)cc12 [Compound P-0032]
IC50 (Zap70): ≤ 10 µM

SMILES: O=C(O)/C=C/c1cccc(-c2cnc3[nH]cc(C(=O)c4ccccc4F)c3c2)c1 [Compound P-0033]
IC50 (Zap70): ≤ 10 µM | IC50 (Syk): ≤ 10 µM | IC50 (TEC): ≤ 10 µM

SMILES: CC(=O)Nc1cccc(-c2cnc3[nH]cc(C(=O)c4cccc(O)c4F)c3c2)c1 [Compound P-0035, N-{3-[3-(2-Fluoro-3-hydroxy-benzoyl)-1H-pyrrolo[2,3-b]pyridin-5-yl]-phenyl}-acetamide]
IC50 (Zap70): ≤ 10 µM

SMILES: Nc1cccc(-c2ccnc3[nH]cc(C(=O)c4ccccc4F)c23)c1 [Compound P-0022]
IC50 (Plk1): ≤ 10 µM

The remaining lines, values ahead:

IC50 (TEC): ≤ 10 µM
SMILES: CN(C)S(=O)(=O)Nc1ccc(F)c(Cc2c[nH]c3ncc(-c4cccnc4)cc23)c1F [Compound P-0166]

IC50 (Hck): ≤ 10 µM
SMILES: CCCCNC(=O)Nc1ccc(F)c(C(=O)c2c[nH]c3ncc(-c4cccnc4)cc23)c1F [Compound P-1318, 1-Butyl-3-[2,4-difluoro-3-(5-pyridin-3-yl-1H-pyrrolo[2,3-b]pyridine-3-carbonyl)-phenyl]-urea]

IC50 (ALK): ≤ 10 µM | IC50 (Hck): ≤ 10 µM | IC50 (Syk): ≤ 10 µM | IC50 (Tie2): ≤ 10 µM
SMILES: COc1cccc(C(=O)c2c[nH]c3ncc(-c4cccc(NC(C)=O)c4)cc23)c1F [Compound P-1336, N-{3-[3-(2-Fluoro-3-methoxy-benzoyl)-1H-pyrrolo[2,3-b]pyridin-5-yl]-phenyl}-acetamide]

IC50 (Plk1): ≤ 10 µM
SMILES: O=C(c1cccc(O)c1F)c1c[nH]c2ncc(Br)cc12 [Compound P-0067, (5-bromo-1H-pyrrolo[2,3-b]pyridin-3-yl)-(2-fluoro-3-hydroxy-phenyl)-methanone]

IC50 (Syk): ≤ 10 µM
SMILES: O=C(c1cccc(O)c1F)c1c[nH]c2ncc(-c3cccs3)cc12 [Compound P-0521, (2-fluoro-3-hydroxy-phenyl)-(5-thiophen-2-yl-1H-pyrrolo[2,3-b]pyridin-3-yl)-methanone]

IC50 (TEC): ≤ 10 µM
SMILES: CCCS(=O)(=O)Nc1ccc(F)c(C(=O)c2c[nH]c3ncc(-c4cccnc4)cc23)c1F [Compound P-0088, Propane-1-sulfonic acid [2,4-difluoro-3-(5-pyridin-3-yl-1H-pyrrolo[2,3-b]pyridine-3-carbonyl)-phenyl]-amide]

IC50 (MAPKAPK2): ≤ 10 µM | IC50 (Zap70): ≤ 10 µM
SMILES: Cc1ccc(S(=O)(=O)NCc2c[nH]c3ncccc23)cc1 [Compound P-0058]

IC50 (MAPKAPK2): ≤ 10 µM
SMILES: Fc1cc(F)cc(-c2ccnc3[nH]cc(Sc4ccccn4)c23)c1 [Compound P-0106]

IC50 (ALK): ≤ 10 µM | IC50 (Hck): ≤ 10 µM | IC50 (Tie2): ≤ 10 µM
SMILES: CCCS(=O)(=O)Nc1ccc(F)c(C(=O)c2c[nH]c3ncc(OC)cc23)c1F [Compound P-0806, Propane-1-sulfonic acid [2,4-difluoro-3-(5-methoxy-1H-pyrrolo[2,3-b]pyridine-3-carbonyl)-phenyl]-amide]

IC50 (ALK): ≤ 10 µM | IC50 (Hck): ≤ 10 µM | IC50 (Tie2): ≤ 10 µM
SMILES: COc1cc(OC)cc(C(=O)c2c[nH]c3ncc(-c4cccc(NS(C)(=O)=O)c4)cc23)c1 [Compound P-1426, N-{3-[3-(3,5-Dimethoxy-benzoyl)-1H-pyrrolo[2,3-b]pyridin-5-yl]-phenyl}-methanesulfonamide]

IC50 (ALK): ≤ 10 µM | IC50 (Tie2): ≤ 10 µM
SMILES: CCCC(=O)Nc1ccc(F)c(Cc2c[nH]c3ncc(-c4cccnc4)cc23)c1F [Compound P-1280]

IC50 (ALK): ≤ 10 µM | IC50 (Hck): ≤ 10 µM | IC50 (Tie2): ≤ 10 µM
SMILES: OCCOc1ccc(F)c(Cc2c[nH]c3ncc(-c4cccnc4)cc23)c1F [Compound P-1394, 2-[2,4-Difluoro-3-(5-pyridin-3-yl-1H-pyrrolo[2,3-b]pyridin-3-ylmethyl)-phenoxy]-ethanol]

IC50 (Syk): ≤ 10 µM
SMILES: O=C(c1cccc(O)c1)c1c[nH]c2ncc(-c3cccs3)cc12 [Compound P-0196]
